54 molecules from patent US10464926B2, “Heterobicyclic compounds and their use for the treatment of tuberculosis” (OTSUKA PHARMACEUTICAL CO., LTD., priority 2014, dated 2019) can be followed below.

Series [1] deals with Mycobacterium tuberculosis (M. tuberculosis Kurono). As to the kind of experiment: Antibacterial test (agar dilution method), M. tuberculosis Kurono. The class given is cell-based. Conditions: 7H11 agar medium, about 10^6 CFU/mL, 37° C. for 14 days; for MIC: Mycobacterium tuberculosis, 336 h, read-out: Minimum inhibitory concentration (MIC) kurono.

The structures appear in SMILES notation.

For `O=C1CCc2c(OC[C@@]3(O)CCN(c4ccc(Cl)cc4F)C[C@@H]3O)ccc(F)c2N1` [Example 265, 5-{[(3S,4S)-1-(4-Chloro-2-fluorophenyl)-3,4-dihydroxypiperidin-4-yl]methoxy}-8-fluoro-3,4-dihydroquinolin-2(1H)-one], the MIC in series [1] was less than 0.39 µg/mL.

Consider `O=C1CCc2c(OC[C@]3(O)CCN(c4c(F)cc(Cl)cc4F)C[C@H]3O)ccc(F)c2N1` [Example 260, 5-{[(3R,4R)-1-(4-Chloro-2,6-difluorophenyl)-3,4-dihydroxypiperidin-4-yl]methoxy}-8-fluoro-3,4-dihydroquinolin-2(1H)-one], for which the MIC in series [1] is less than 0.39 µg/mL.

As to `O=C1CCc2c(OC[C@]3(O)CCN(c4ncc(Cl)cc4Cl)C[C@H]3O)ccc(F)c2N1` [Example 251, 5-{[(3R,4R)-1-(3,5-Dichloropyridin-2-yl)-3,4-dihydroxypiperidin-4-yl]methoxy}-8-fluoro-3,4-dihydroquinolin-2(1H)-one], in series [1], the MIC was less than 0.39 µg/mL.

For the molecule `NC1(COc2ccc(Cl)c3c2CCC(=O)N3)CCN(c2ccc(Cl)cc2F)CC1` [Example 14, 5-{[4-Amino-1-(4-chloro-2-fluorophenyl)piperidin-4-yl]methoxy}-8-chloro-3,4-dihydroquinolin-2(1H)-one], the MIC in series [1] is less than 0.39 µg/mL.

For the molecule `O=C1CCc2c(OC[C@H]3CCN(c4ccc(Cl)cc4F)C[C@@H]3O)ccc(F)c2N1` (relative stereo) [Example 419, 5-{[(3R*,4R*)-1-(4-Chloro-2-fluorophenyl)-3-hydroxypiperidin-4-yl]methoxy}-8-fluoro-3,4-dihydroquinolin-2(1H)-one], the MIC in series [1] was less than 0.39 µg/mL.

With `N#CC1(c2ccc(Cl)cc2F)CCC(O)(COc2ccc(F)c3c2CCC(=O)N3)CC1` (stereo not drawn) [Example 476, trans-1-(4-Chloro-2-fluorophenyl)-4-{[(8-fluoro-2-oxo-1,2,3,4-tetrahydroquinolin-5-yl)oxy]methyl}-4-hydroxycyclohexanecarbonitrile], the “Minimum inhibitory concentration (MIC) kurono” value in series [1] was less than 0.39 µg/mL.

Consider `O=C1CCc2c(OC[C@]3(O)CC[C@@](O)(c4ccc(Cl)cc4F)C[C@H]3O)ccc(F)c2N1` (relative stereo) [Example 473, 5-{[(1R*,2R*,4S*)-4-(4-Chloro-2-fluorophenyl)-1,2,4-trihydroxycyclohexyl]methoxy}-8-fluoro-3,4-dihydroquinolin-2(1H)-one], for which the MIC in series [1] was less than 0.39 µg/mL.

For `NC1(COc2ccc(Cl)c3[nH]c(=O)ccc23)CCN(c2ccc(Cl)cc2F)CC1` [Example 17, 5-{[4-Amino-1-(4-chloro-2-fluorophenyl)piperidin-4-yl]methoxy}-8-chloroquinolin-2(1H)-one], the MIC in series [1] is less than 0.39 µg/mL.

`O=C1CCc2c(OCC3(O)CCN(c4c(F)cc(F)cc4F)CC3)cc(F)c(Cl)c2N1` [Example 214, 8-Chloro-7-fluoro-5-{[4-hydroxy-1-(2,4,6-trifluorophenyl)piperidin-4-yl]methoxy}-3,4-dihydroquinolin-2(1H)-one]: the MIC in series [1] is less than 0.39 µg/mL.

As to `NC1(COc2ccc(F)c3c2CCC(=O)N3)CCN(c2ncc(Cl)cc2Cl)CC1` [Example 1, 5-{[4-Amino-1-(3,5-dichloropyridin-2-yl)piperidin-4-yl]methoxy}-8-fluoro-3,4-dihydroquinolin-2(1H)-one], in series [1], the MIC was less than 0.39 µg/mL.

As to `O=C1CCc2c(OCC3(O)CCC(c4ccc(Cl)cc4F)CC3)ccc(F)c2N1` (stereo not drawn) [Example 469, 5-{[cis-4-(4-Chloro-2-fluorophenyl)-1-hydroxycyclohexyl]methoxy}-8-fluoro-3,4-dihydroquinolin-2(1H)-one], the “Minimum inhibitory concentration (MIC) kurono” value in series [1] was less than 0.39 µg/mL.

With `Cc1c(F)cc(OCC2(O)CCN(c3cc(F)c(Cl)cc3Cl)CC2)c2c1NC(=O)CC2` [Example 206, 5-{[1-(2,4-Dichloro-5-fluorophenyl)-4-hydroxypiperidin-4-yl]methoxy}-7-fluoro-8-methyl-3,4-dihydroquinolin-2(1H)-one], the MIC in series [1] is less than 0.39 µg/mL.

`O=C1CCc2c(OCC3(O)CCN(c4cccc(C(F)(F)F)c4)CC3)ccc(F)c2N1` yielded a melting point of 159.4 to 159.5 °C.

Molecule `CCCOc1cc(F)c(N2CC[C@@](O)(COc3ccc(F)c4c3CCC(=O)N4)[C@H](O)C2)c(F)c1` gave a melting point of 194.8 to 195 °C.

Turning to `CO[C@H]1CN(c2ncc(Cl)cc2Cl)CC[C@]1(O)COc1ccc(F)c2c1CCC(=O)N2` (relative stereo), the melting point lay in the range of 162.8 to 164 °C.

Regarding `CCCc1cc(N2CCC(O)(COc3ccc(F)c4c3CCC(=O)N4)CC2)c(F)cc1Cl`, the melting point was 196.5 to 196.6 °C.

The molecule `O=C1CCc2c(OC[C@]3(O)CCN(c4nc5ccccc5[nH]4)C[C@H]3O)ccc(F)c2N1` came in with a melting point of 279 to 281 °C.

On to `O=C1CCc2c(OCC3(O)CCN(c4c(F)cc(Br)cc4F)CC3)cc(F)c(F)c2N1`, for which the melting point fell in the range of 233.1 to 233.2 °C.

For `O=C1CCc2c(OCC3(O)CCN(c4ccc(Cl)cc4C(F)(F)F)CC3)ccc(F)c2N1`, the melting point fell in the range of 211.3 to 211.5 °C.

`CCOc1cc(F)c(N2CCC(O)(COc3ccc(F)c4c3CCC(=O)N4)CC2)c(F)c1`: the melting point was 207.9 to 208.8 °C.

In the case of `CN(CC1(O)CCN(c2ccc(Cl)cc2Cl)CC1)c1ccc(F)c2c1CCC(=O)N2`, the melting point fell in the range of 156 to 157 °C.

Regarding `O=C1CCc2cc(OCC3(O)CCN(c4ccc(Cl)cc4F)CC3)ccc2N1`, the melting point was in the range of 219.1 to 220 °C.

`O=C1CCc2c(OCC3(O)CCN(c4cc(F)c(Cl)cc4F)CC3)ccc(Cl)c2N1` showed a melting point of 190.3 to 190.4 °C.

The molecule `O=C1CCc2c(OC[C@]3(O)CCN(c4c(F)cc(Br)cc4F)C[C@H]3O)ccc(Cl)c2N1` [Example 326] gave a melting point of 203.6 to 203.7 °C.

For `O=C1CCc2c(OCC3(O)CCN(c4cc(Cl)c(F)cc4Cl)CC3)ccc(F)c2N1`, the melting point was determined as 207.9 °C.

The molecule `O=C1CCc2c(OC[C@@]3(O)CCN(c4ncc(Cl)cc4Cl)C[C@@H]3O)ccc(F)c2N1` (relative stereo) registered a melting point of 202.6 to 204.8 °C.

In turn, `O=c1ccc2c(OC[C@]3(O)CCN(c4c(F)cc(Cl)cc4F)C[C@H]3O)ccc(F)c2[nH]1` [Example 367] returned a melting point of 247.4 to 247.5 °C.

In the case of `O=C1CCc2c(OCC3(O)CCN(c4c(F)cc(OC(F)F)cc4F)CC3)ccc(F)c2N1`, the melting point lay in the range of 172.6 to 172.7 °C.

In the case of `Cc1cc(Cl)ccc1N1CCC(O)(COc2ccc(F)c3c2CCC(=O)N3)CC1`, the melting point fell in the range of 214 to 215 °C.

In turn, `O=C1CCc2c(OC[C@]3(O)CCN(c4c(F)cc(Cl)cc4F)C[C@H]3O)cc(F)c(F)c2N1` gave a melting point of 199 to 201 °C.

In turn, `O=C1CCc2c(OC[C@]3(O)CCN(c4ccccc4)C[C@H]3O)ccc(F)c2N1` came in with a melting point of 202.8 to 203.5 °C.

The molecule `CC(C)Oc1cc(N2CCC(O)(COc3ccc(F)c4c3CCC(=O)N4)CC2)c(F)cc1Cl` showed a melting point of 216.7 to 217 °C.

The molecule `O=C1CCc2c(OCC3(O)CCN(c4ccc(OCc5ccccc5)cc4F)CC3)ccc(F)c2N1` returned a melting point of 193 °C.

`O=C1CCc2c(OCC3(O)CCN(c4c(Cl)cncc4Cl)CC3)ccc(F)c2N1` returned a melting point of 225.8 to 225.9 °C.

On to `CCc1cc(N2CCC(O)(COc3ccc(Cl)c4c3CCC(=O)N4)CC2)c(F)cc1F`, for which the melting point fell in the range of 178.8 to 178.9 °C.

In turn, `O=C1CCc2c(OC[C@H]3CCN(c4cc(F)c(Cl)cc4F)C[C@@H]3O)ccc(F)c2N1` (relative stereo) registered a melting point of 168.9 to 172.7 °C.

Take `O=C1CCc2c(OCC3(O)CCN(c4ccc(Br)cc4F)CC3)ccc(Cl)c2N1`: the melting point fell in the range of 223.1 to 223.2 °C.

`O=C1CCc2c(OCC3(O)CCN(c4cc(OCC(F)(F)F)c(Cl)cc4F)CC3)ccc(F)c2N1` gave a melting point of 200.6 to 201 °C.

On to `CO[C@H]1CN(c2ncc(Cl)cc2Cl)CC[C@@]1(O)COc1ccc(F)c2c1CCC(=O)N2` (relative stereo), for which the melting point lay within 186 to 187 °C.

`CCOc1cc(N2CCC(O)(COc3ccc(Cl)c4c3CCC(=O)N4)CC2)c(F)cc1Cl` displayed a melting point of 228.1 to 229 °C.

As to `CCOc1c(F)c(F)c(N2CCC(O)(COc3ccc(Cl)c4c3CCC(=O)N4)CC2)c(F)c1F`, the melting point is 174.4 to 174.5 °C.

For the molecule `CCOC(=O)O[C@@H]1CN(c2ccc(Cl)cc2F)CC[C@@]1(O)COc1ccc(F)c2c1CCC(=O)N2`, the melting point lay in the range of 171 to 172 °C.

In the case of `CCc1ccccc1N1CCC(O)(COc2ccc(F)c3c2CCC(=O)N3)CC1`, the melting point fell in the range of 178.6 to 179.3 °C.

Regarding `O=C1CCc2c(OCC3(O)CCN(c4ccc5c(c4)OC(F)(F)O5)CC3)ccc(F)c2N1`, the melting point was 198.4 to 198.5 °C.

For the molecule `O=C1CCc2c(OCC3(O)CCN(c4c(Cl)cccc4Cl)CC3)ccc(F)c2N1`, the melting point lay within 203.6 to 203.8 °C.

For the molecule `O=C1CCc2c(OC[C@@]3(O)CCN(c4ccc(Br)cc4F)C[C@H]3O)ccc(F)c2N1`, the melting point was in the range of 194.7 to 194.8 °C.

`CCNC(=O)O[C@@H]1CN(c2ccc(Cl)cc2F)CC[C@@]1(O)COc1ccc(F)c2c1CCC(=O)N2` registered a melting point of 156 to 157 °C.

In turn, `O=C1CCc2c(OCC3(O)CCN(c4ccc(F)cc4F)CC3)ccc(F)c2N1` came in with a melting point of 201.7 to 201.9 °C.

Take `O=C1CCc2c(OCC3(O)CCN(c4c(F)cc(OCC(F)(F)F)cc4F)CC3)ccc(F)c2N1`: the melting point lay in the range of 189.8 to 189.9 °C.

Molecule `O=C1CCc2c(OC[C@]3(O)CCN(c4ccccc4F)C[C@H]3O)ccc(F)c2N1` registered a melting point of 177.7 to 178 °C.

In turn, `O=C1CCc2c(OC[C@@]3(O)CCN(c4ccc(Cl)cc4F)C[C@@H]3O)ccc(F)c2N1` (relative stereo) gave a melting point of 191.9 to 193.5 °C.

Consider `O=C1CCc2c(OCC3(O)CCN(c4cc5c(cc4F)OC(F)(F)O5)CC3)cc(F)c(F)c2N1`, for which the melting point is 258.9 to 259 °C (dec.).

In the case of `CCOc1cc(F)c(N2CCC(O)(COc3ccc(F)c4c3CCC(=O)N4)CC2)cc1F`, the melting point was 174.1 to 174.5 °C.

`O=C1CCc2c(OCC3(O)CCN(c4cc(F)c(Cl)cc4F)CC3)ccc(F)c2N1` returned a melting point of 185.1 to 185.2 °C.

As a reminder, the melting point is the temperature of the solid-liquid transition.
